molecular target: T1, Coagulation factor X (Homo sapiens, UniProt P00742); assay: Inhibitory activity against Coagulation factor X
T1 sequence (P00742 41-179 limits assumed): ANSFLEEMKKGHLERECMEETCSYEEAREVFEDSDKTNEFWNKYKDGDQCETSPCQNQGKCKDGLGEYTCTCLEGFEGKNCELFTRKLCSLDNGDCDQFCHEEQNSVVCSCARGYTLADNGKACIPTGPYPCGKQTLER
T1 sequence (P00742 235-488 limits assumed): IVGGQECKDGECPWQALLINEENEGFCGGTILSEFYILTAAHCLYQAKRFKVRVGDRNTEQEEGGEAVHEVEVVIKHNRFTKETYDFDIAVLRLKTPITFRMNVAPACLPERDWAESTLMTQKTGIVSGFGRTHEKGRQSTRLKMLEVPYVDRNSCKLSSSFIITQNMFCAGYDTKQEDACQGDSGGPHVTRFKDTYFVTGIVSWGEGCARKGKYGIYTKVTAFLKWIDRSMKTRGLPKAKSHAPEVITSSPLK

IC50 [µM] | SMILES
134 | CC1CNc2c(cccc2S(=O)(=O)N[C@@H](CCCNC(=N)N)C(=O)N2CCC(C)C[C@@H]2C(=O)O)C1 (single isomer, unassigned) [ARGATROBAN]

molecular target: Prothrombin (Homo sapiens, UniProt P00734); assay: Inhibitory activity against thrombin with respect to Argatroban

SMILES | IC50 [µM]
CN(CC(=O)NC(CC1CCNCC1)C(=O)c1nccs1)C(=O)[C@@H](CC1CCCCC1)NCC(=O)O (stereo partly specified) | 4.8
CCS(=O)(=O)N[C@H](CC1CCCCC1)C(=O)N1CCC[C@H]1C(=O)N[C@@H](CC1CCNCC1)C(=O)c1nccs1 | 0.12
O=C(Cn1cccc(NS(=O)(=O)Cc2ccccc2)c1=O)N[C@@H](CC1CCNCC1)C(=O)C(=O)NCc1ccccc1 | 0.59
O=C(O)CN[C@H](CC1CCCCC1)C(=O)N[C@@H](Cc1ccccc1)C(=O)NC(CC1CCNCC1)C(=O)c1nccs1 (stereo partly specified) | 3.1
O=C(NCc1ccccc1)C(=O)[C@H](CC1CCNCC1)NC(=O)[C@H]1CCCN1C(=O)[C@@H]1NCC[C@H]2CCCC[C@H]21 | 0.048

Now from value to molecule:

IC50 [µM] | SMILES
0.26 | O=C(NCc1ccccc1)C(=O)[C@H](CC1CCNCC1)NC(=O)[C@H]1CCCN1C(=O)CC(c1ccccc1)c1ccccc1
19.4 | O=C(O)CN[C@H](CC1CCCCC1)C(=O)NCC(=O)NC(CC1CCNCC1)C(=O)c1nccs1 (stereo partly specified)
0.16 | CCS(=O)(=O)N[C@H](CC1CCCCC1)C(=O)N1CCC[C@H]1C(=O)NC(CC1CCNCC1)C(=O)c1nccs1 (stereo partly specified)
1.4 | O=C(CN1CCCCC(NS(=O)(=O)Cc2ccccc2)C1=O)N[C@@H](CC1CCNCC1)C(=O)C(=O)NCc1ccccc1 (stereo partly specified)
0.22 | CCS(=O)(=O)N[C@H](CC1CCCCC1)C(=O)N1CCC[C@H]1C(=O)NC(CC1CCNCC1)C(=O)C(=O)O (stereo partly specified)

molecular target: T1, Coagulation factor X; assay: Inhibitory activity against Coagulation factor X with respect to Argatroban

SMILES | IC50 [µM]
CN(CC(=O)NC(CC1CCNCC1)C(=O)c1nccs1)C(=O)[C@@H](CC1CCCCC1)NCC(=O)O (stereo partly specified) | 0.43
CCS(=O)(=O)N[C@H](CC1CCCCC1)C(=O)N1CCC[C@H]1C(=O)N[C@@H](CC1CCNCC1)C(=O)c1nccs1 | 2.5
O=C(Cn1cccc(NS(=O)(=O)Cc2ccccc2)c1=O)N[C@@H](CC1CCNCC1)C(=O)C(=O)NCc1ccccc1 | 3.6
O=C(O)CN[C@H](CC1CCCCC1)C(=O)N[C@@H](Cc1ccccc1)C(=O)NC(CC1CCNCC1)C(=O)c1nccs1 (stereo partly specified) | 7.8
O=C(NCc1ccccc1)C(=O)[C@H](CC1CCNCC1)NC(=O)[C@H]1CCCN1C(=O)[C@@H]1NCC[C@H]2CCCC[C@H]21 | 2.9

Next, values leading:

IC50 [µM] | SMILES
54 | O=C(NCc1ccccc1)C(=O)[C@H](CC1CCNCC1)NC(=O)[C@H]1CCCN1C(=O)CC(c1ccccc1)c1ccccc1
1.1 | O=C(O)CN[C@H](CC1CCCCC1)C(=O)NCC(=O)NC(CC1CCNCC1)C(=O)c1nccs1 (stereo partly specified)
4.1 | CCS(=O)(=O)N[C@H](CC1CCCCC1)C(=O)N1CCC[C@H]1C(=O)NC(CC1CCNCC1)C(=O)c1nccs1 (stereo partly specified)
5.2 | O=C(CN1CCCCC(NS(=O)(=O)Cc2ccccc2)C1=O)N[C@@H](CC1CCNCC1)C(=O)C(=O)NCc1ccccc1 (stereo partly specified)
16 | CCS(=O)(=O)N[C@H](CC1CCCCC1)C(=O)N1CCC[C@H]1C(=O)NC(CC1CCNCC1)C(=O)C(=O)O (stereo partly specified)
